Key:
[1] = biological target: T1, Mdm2/p53 binding (His-p53 and GST-Mdm2) (Homo sapiens, UniProt Q00987, L33E); assay: Mdm2/p53 binding assay (HTRF); settings: His-p53 (aa 1-132) / GST-Mdm2 (aa 25-108, L33E), 6.25 nM each, 25° C., 1 hour
T1 construct: Mdm2 amino acids at positions 25 to 108
Procedure: A protein dilution containing 6.25 nM each of His-p53 (fusion protein of a p53 partial protein having p53 amino acids at positions 1 to 132, with a histidine protein) and GST-Mdm2 (fusion protein of a Mdm2 partial protein, having Mdm2 amino acids at positions 25 to 108 with leucine residue 33 substituted by glutamic acid, with glutathione transferase) proteins was prepared using a protein buffer solution (20 mM HEPES pH 7.4, 150 mM NaCl, 0.1% BSA). This protein dilution was added in an amount of 8 μL/well to a 384-well plate (384-well low volume NBC, Corning Inc., catalog No: 3676). […]
Time-resolved fluorescence at 620 and 665 nm was measured at an excitation wavelength of 320 nm using a plate reader (ARVOsx, PerkinElmer Co., Ltd. or PHERAstar, BMG LABTECH). Ratio (R) was calculated using the measured values (RFU 620 nm and RFU 665 nm) according to the following formula: R=(RFU 665 nm−BI−C×RFU 620 nm)/RFU 620 nm
BI: measured value at 665 nm of reaction solution (only each buffer solution) nonsupplemented with each protein, the compound, and the antibodies […]
A and D: each measured value at 665 nm and 620 nm of reaction solution supplemented with only Eu-labeled anti-GST antibody solution.
The R value calculated from the well supplemented with His-p53, GST-Mdm2, the test compound, and each antibody was defined as R (sample). […] T/C was calculated from the formula shown below. […]

[2] = test system: human lung cancer-derived cell line NCI-H460 having wild-type p53; assay: Cell growth inhibition assay (MTT); format: cell-based; settings: 72 h, NCI-H460 cells, 3 days culture, read-out: cell growth inhibiting effect GI50
Procedure: A cell growth inhibition assay was conducted using human lung cancer-derived cell line NCI-H460 having wild-type p53.
NCI-H460 cells were suspended in a medium (RPMI1640 medium containing 10% fetal bovine serum) and the suspension was inoculated in an amount of 500 cells/150 μL/well to a 96-well multiwell plate. A test compound was dissolved in DMSO and this solution was diluted with medium to prepare a sample solution (DMSO concentration: 1% or lower). On the next day of inoculation, medium nonsupplemented with the test compound or the sample solution was added in an amount of 50 μL/well. […]
A 5 mg/mL MTT (3-(4,5-dimethylthiazol-2-yl)-2,5-diphenyltetrazolium bromide, Sigma-Aldrich Co., M-2128) solution was prepared using a phosphate buffer solution (Dulbecco's Phosphate-buffered Saline). […] The absorbance of each well was measured under conditions of OD 540 nm and reference 660 nm using a plate reader (SpectraMax PLUS384, Molecular Devices, Calif., USA).
The OD value measured on the day of adding the sample solution was defined as S. The OD value measured three days after addition of the sample solution was defined as T. The OD value measured three days after addition of the DMSO dilution was defined as C. […]

T1 sequence (Q00987 25-108 L33E): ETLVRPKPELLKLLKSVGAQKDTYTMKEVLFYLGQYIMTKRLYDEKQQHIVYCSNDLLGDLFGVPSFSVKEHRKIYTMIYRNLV

Structure (SMILES): CC1(C)CCC2(CC1)N[C@@H](C(=O)N[C@@H]1CC[C@@H](C(N)=O)OC1)[C@H](c1ccnc(Cl)c1F)[C@]21C(=O)Nc2cc(Cl)ccc21 [compound (1), (3′R,4′S,5′R)—N-[(3R,6S)-6-carbamoyltetrahydro-2H-pyran-3-yl]-6″-chloro-4′-(2-chloro-3-fluoropyridin-4-yl)-4,4-dimethyl-2″-oxo-1″,2″-dihydrodispiro[cyclohexane-1,2′-pyrrolidine-3′,3″-indole]-5′-carboxamide]
- IC50 [1]: ≤ 100 nM
- GI50 [2]: < 100 nM
